Results on one compound are retold here after PMC4767605 (Cancer chemotherapy and pharmacology, 2016).

Data set [1] deals with breast cancer (MDA-MB-231). As to the kind of experiment: Breast cancer xenograft in mice, combination with paclitaxel. As to conditions: ASP9853 in combination with paclitaxel; MDA-MB-231 xenograft; data not shown. The data set is classed as in vivo.
Data set [2] relates to ovarian cancer (MCUAS). Nature of the data set: Ovarian cancer xenograft in mice, combination with paclitaxel. It is filed as in vivo. As to conditions: ASP9853 in combination with paclitaxel, data not shown.
The subject of data set [3] is prostate cancer (PC-3). As to the kind of experiment: Prostate cancer xenograft in mice, combination with paclitaxel. It is filed as in vivo. As to conditions: ASP9853 in combination with paclitaxel; PC-3 xenograft; data not shown.
Data set [4] is described as follows: Phase I study: plasma pharmacokinetics of ASP9853 and docetaxel. It is filed as in vivo, human. As to conditions: for Median ASP9853 Cmax / Median AUC24 for ASP9853: Cycle 1/Day 1.
Data set [5] has as its system human NSCLC cell line Calu-6. As to conditions: ASP9853 alone, 100 mg/kg oral, twice daily.
Where [6] appears, read: Cohort 1: ASP9853 25 mg + docetaxel 60 mg/m^2.
The mark [7] stands for this setting: Cohort 2: ASP9853 25 mg + docetaxel 75 mg/m^2.
The mark [8] stands for this setting: Cohort 3: ASP9853 37.5 mg + docetaxel 60 mg/m^2.
[9] abbreviates: Cohort 4: ASP9853 50 mg + docetaxel 60 mg/m^2.

`O.O.O=C(/C=C/c1ccc(Cl)cc1)N[C@@H](Cc1ccccn1)C(=O)NCC(=O)N1CCC(Oc2cc(C(F)(F)F)ncn2)CC1` [ASP9853, (2E)-3-(4-chlorophenyl)-N-[(1S)-2-oxo-2-{[2-oxo-2-(4-{[6-(trifluoromethyl)-4-pyrimidinyl]oxy}-1-piperidinyl)ethyl]amino}-1-(2-pyridinylmethyl)ethyl]acrylamide dehydrate]: the Tumor growth inhibition entry in data set [1], in data set [2] and in data set [3] was “greater tumor growth inhibition” in each case. Besides, in data set [4] (Cycle 1, Day 1, high interpatient variability), the “ASP9853 PK profiles in patients with versus without neutropenic DLTs” value is recorded as “no clear difference”. Further, the “Median ASP9853 Cmax” value is 747 ng/mL in data set [4] (setting [6]), 1019 ng/mL in data set [4] (setting [7]), 2450 ng/mL in data set [4] (setting [8]) and 1490 ng/mL in data set [4] (setting [9]). In addition, the “Median AUC24 for ASP9853” value came to 3769 ng·h/mL in data set [4] (setting [6]), 8839 ng·h/mL in data set [4] (setting [7]), 7075 ng·h/mL in data set [4] (setting [8]) and 6922 ng·h/mL in data set [4] (setting [9]). Moreover, the “ASP9853 cleared from plasma within 24 hours after administration” value in data set [4] (in vivo) is “more than 95%”. Besides, the “Tmax of ASP9853” value in data set [4] (oral, patients with advanced solid tumors) lay in the range of 30 to 252 min. Also, in data set [4] (sample size too small for statistical significance, data not shown), the “ASP9853 plasma exposure (AUC24) when administered in combination with docetaxel” value is “appeared lower”. Besides, the “Antitumor activity in the Calu-6 NSCLC xenograft model” value in data set [5] is “no antitumor activity”.
